Measured values from PMC4300089, “Structure-Guided Design of Selective Epac1 and Epac2 Agonists” (PLoS Biology, 2015).
Positions count from the first letter of the chain named.

What was measured:
[1] = target: T1, Epac2^Δ280 (Mus musculus, UniProt Q9EQZ6); assay: Epac activation assay (Rap1B•mGDP fluorescence nucleotide exchange), Epac2^Δ280; type: biochemical
T1 construct: made in house
T1 sequence (Q9EQZ6 281-993 isoform Q9EQZ6-3): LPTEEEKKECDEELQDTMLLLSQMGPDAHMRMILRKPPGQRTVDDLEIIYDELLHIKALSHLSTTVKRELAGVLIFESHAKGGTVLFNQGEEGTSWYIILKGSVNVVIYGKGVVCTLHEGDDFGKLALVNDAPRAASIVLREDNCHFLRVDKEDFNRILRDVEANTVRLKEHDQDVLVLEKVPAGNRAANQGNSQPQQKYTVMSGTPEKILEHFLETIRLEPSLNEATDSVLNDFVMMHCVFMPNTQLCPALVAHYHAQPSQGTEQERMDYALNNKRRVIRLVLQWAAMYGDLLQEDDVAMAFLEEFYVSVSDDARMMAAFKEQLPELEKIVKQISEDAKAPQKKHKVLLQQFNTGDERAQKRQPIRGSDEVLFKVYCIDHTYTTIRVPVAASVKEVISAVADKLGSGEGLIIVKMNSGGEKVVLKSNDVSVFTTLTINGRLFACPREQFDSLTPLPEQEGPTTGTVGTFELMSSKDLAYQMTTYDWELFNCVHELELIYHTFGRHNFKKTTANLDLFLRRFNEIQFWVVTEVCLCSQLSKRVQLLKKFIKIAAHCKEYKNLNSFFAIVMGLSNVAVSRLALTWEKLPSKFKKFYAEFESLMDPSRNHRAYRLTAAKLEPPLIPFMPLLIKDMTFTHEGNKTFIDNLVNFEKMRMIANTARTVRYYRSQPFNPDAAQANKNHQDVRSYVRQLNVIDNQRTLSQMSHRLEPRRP
Method: (§1) Murine Epac2 was used as all previous structural studies were performed with it.
(§2) The activity of Epac was determined by a fluorescence assay. […] The fluorescence intensity of Rap1B•mGDP is approximately twice that of free mGDP, and thus, nucleotide exchange can be observed as a decay in fluorescence upon the addition of excess unlabeled GDP.

[2] = target: T2, Epac2^Δ280,K450E (Mus musculus, UniProt Q9EQZ6, K468E); assay: Epac activation assay, Epac2 K450E mutant; type: biochemical
T2 construct: made in house
T2 sequence (Q9EQZ6 281-993 isoform Q9EQZ6-3 K450E): T1 sequence (Q9EQZ6 281-993 isoform Q9EQZ6-3) with K170E
Method: as §1, §2

[3] = tested on: PKA; assay: Cellular PKA activity: P-VASP band shift in U2OS Epac1 and Epac2 cell lines; type: cell-based
Method: Rap•GTP levels were determined by precipitating GTP-bound Rap specifically from cell lysates and subsequent western Blotting with an α-Rap antibody (Santa Cruz Biotechnology). To generate stable cell lines, U2OS cells were transfected with pBabe-Flag-Epac1 (Epac1, homo sapiens, amino acids 1–881) or pBabe-Flag-Epac2 (Epac2, mus musculus, amino acids 1–993), selected for Epac expression and maintained under selection with 2 mg/l puromycin. The cells were cultured according to standard protocols. The activity of PKA was determined by western blotting with a monoclonal α-VASP antibody (BD Transduction Laboratories). Blots were developed by enhanced chemiluminescence (ECL) and the use of X-ray films; for quantification films were scanned. The intensities of the Rap•GTP bands and the upper band of VASP (P-VASP) were determined for each condition in ImageJ and normalized to the stimulation with forskolin and IBMX for each blot.

In the case of Nc1ncnc2c1nc(SCc1ccccc1)n2[C@@H]1O[C@@H]2CO[P@](O)(=S)O[C@H]2[C@H]1O [S-220, Sp-8-BnT-cAMPS], the kobs ([1]; 0.04 μM compound) is reported as 0.000468 s⁻¹, the kobs ([1]; 0.05 μM compound) is reported as 0.000508 s⁻¹ and the kobs ([1]; 0.06 μM compound) is reported as 0.000631 s⁻¹. For the same molecule, the kobs ([1]; 0.07 μM compound) was 0.000864 s⁻¹, the kobs ([1]; 0.08 μM compound) was 0.000721 s⁻¹ and the kobs ([1]; 0.1 μM compound) was 0.000827 s⁻¹. The kobs ([1]; 0.2 μM compound) was 0.00131 s⁻¹, the kobs ([1]; 0.3 μM compound) was 0.00149 s⁻¹ and the kobs ([1]; 0.4 μM compound) was 0.00167 s⁻¹. For the same molecule, the kobs ([1]; 0.5 μM compound) was 0.00155 s⁻¹, the kobs ([1]; 0.6 μM compound) was 0.00184 s⁻¹ and the kobs ([1]; 0.7 μM compound) was 0.00188 s⁻¹. It also gave an AC50 ([1]; Epac2^Δ280) of 0.1 µM, a Rel. kmax ([1]; Epac2^Δ280, maximal activity relative to cAMP) of 7.7 and a kobs ([2]; 0.001 μM compound) of 3.4e-05 s⁻¹. The kobs ([2]; 0.003 μM compound) was 4.1e-05 s⁻¹, the kobs ([2]; 0.005 μM compound) was 4.7e-05 s⁻¹ and the kobs ([2]; 0.008 μM compound) was 5.6e-05 s⁻¹. It also gave a kobs ([2]; 0.01 μM compound) of 7.9e-05 s⁻¹, a kobs ([2]; 0.03 μM compound) of 0.000149 s⁻¹ and a kobs ([2]; 0.04 μM compound) of 0.000174 s⁻¹. The kobs ([2]; 0.05 μM compound) was 0.000201 s⁻¹, the kobs ([2]; 0.06 μM compound) was 0.000239 s⁻¹ and the kobs ([2]; 0.07 μM compound) was 0.000269 s⁻¹. For the same molecule, the kobs ([2]; 0.08 μM compound) was 0.000291 s⁻¹, the kobs ([2]; 0.1 μM compound) was 0.000329 s⁻¹ and the kobs ([2]; 0.2 μM compound) was 0.000621 s⁻¹. For the same molecule, the kobs ([2]; 0.3 μM compound) was 0.000717 s⁻¹, the kobs ([2]; 0.4 μM compound) was 0.000786 s⁻¹ and the kobs ([2]; 0.5 μM compound) was 0.000805 s⁻¹. For the same molecule, the kobs ([2]; 0.6 μM compound) was 0.000891 s⁻¹, the kobs ([2]; 0.7 μM compound) was 0.000938 s⁻¹ and the kobs ([2]; 0.8 μM compound) was 0.000942 s⁻¹. For the same molecule, the kobs ([2]; 1 μM compound) was 0.000907 s⁻¹, the kobs ([2]; 2 μM compound) was 0.00111 s⁻¹ and the kobs ([2]; 3 μM compound) was 0.00113 s⁻¹. For the same molecule, the kobs ([2]; 4 μM compound) was 0.00112 s⁻¹, the kobs ([2]; 5 μM compound) was 0.00108 s⁻¹ and the kobs ([2]; 6 μM compound) was 0.00112 s⁻¹. For the same molecule, the kobs ([2]; 7 μM compound) was 0.00112 s⁻¹, the kobs ([2]; 8 μM compound) was 0.00112 s⁻¹ and the kobs ([2]; 10 μM compound) was 0.00104 s⁻¹. The “rel. P-VASP” value ([3]; PKA, average of Epac1 and Epac2 cell lines, relative to induction with forskolin and IBMX, Fig. 6C) was 0.1961 and the “activation of PKA in cells” value ([3]; U2OS cell lines) was “very low”.
